In US7964607B2, “Pyrazolo[3,4-d]pyrimidine compounds” (Pfizer Inc., priority 2007, dated 2011):

These compounds were tested against T1, human recombinant PDE9 enzyme (Homo sapiens, UniProt O76083) (assay: Phosphodiesterase 9 (PDE9) inhibitory activity, Scintillation Proximity (SPA) assay). Settings: human recombinant PDE9 from SF-9 cells; 50 nM [3H]cGMP; room temperature, 30 min; Examples 3-114; read-out: G5678A (U): IC50.
T1 construct: made in house; host or cells: SF-9 insect cells
T1 sequence (O76083 whole entry): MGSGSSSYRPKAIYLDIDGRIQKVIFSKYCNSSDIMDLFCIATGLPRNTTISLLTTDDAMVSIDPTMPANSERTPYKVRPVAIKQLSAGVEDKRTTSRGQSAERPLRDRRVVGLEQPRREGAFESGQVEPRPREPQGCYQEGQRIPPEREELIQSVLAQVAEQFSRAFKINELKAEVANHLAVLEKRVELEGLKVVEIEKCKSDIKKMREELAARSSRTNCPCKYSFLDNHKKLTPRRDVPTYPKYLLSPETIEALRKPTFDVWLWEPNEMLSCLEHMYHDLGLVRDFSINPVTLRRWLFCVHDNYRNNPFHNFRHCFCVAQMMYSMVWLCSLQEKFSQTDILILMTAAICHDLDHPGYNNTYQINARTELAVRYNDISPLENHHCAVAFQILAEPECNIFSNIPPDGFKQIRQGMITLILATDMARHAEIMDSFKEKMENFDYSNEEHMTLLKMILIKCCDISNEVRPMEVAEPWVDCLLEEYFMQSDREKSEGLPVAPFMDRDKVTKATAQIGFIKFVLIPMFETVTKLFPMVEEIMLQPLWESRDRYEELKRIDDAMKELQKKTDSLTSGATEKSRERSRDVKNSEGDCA
Format: biochemical
Method in brief: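 Recombinant human PDE9 from SF-9 cell lysate supernatant, diluted so that ≤20% of [3H]cGMP substrate was hydrolysed to 5′GMP. Reaction started with enzyme and run 30 min at room temperature with 2% DMSO final. SPA beads were counted after >300 min; background came from a high concentration of a PDE inhibitor.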
With CC[C@@H]1CN(Cc2cnc(C)nc2)C[C@H]1c1nc2c(cnn2C(C)C)c(=O)[nH]1 (relative stereo) [Example 59, 6-{(3,4-trans)-4-ethyl-1-[(2-methylpyrimidin-5-yl)methyl]pyrrolidin-3-yl}-1-isopropyl-1,5-dihydro-4H-pyrazolo[3,4-d]pyrimidin-4-one] the IC50 was 0.00737 µM. Compound C[C@@H]1CN(Cc2ccccc2)C[C@H]1c1nc2c(cnn2CC(F)(F)F)c(=O)[nH]1 (relative stereo) [Example 64] has an IC50 of 0.873 µM.

Same assay, conditions: human recombinant PDE9 from SF-9 cells; 50 nM [3H]cGMP; room temperature, 30 min; additional compounds Ex. 115-228; read-out: G5678A (U):IC50
For COc1cccc(CN2C[C@@H](C)[C@H](c3nc4c(cnn4C4CCCC4)c(=O)[nH]3)C2)c1 (racemic) [Example 204, 1-cyclopentyl-6-[(3,4-trans)-1-(3-methoxybenzyl)-4-methylpyrrolidin-3-yl]-1,5-dihydro-4H-pyrazolo[3,4-d]pyrimidin-4-one], the IC50 was 0.00956 µM. C[C@@H]1CN(CC2CCCC2)C[C@H]1c1nc2c(cnn2C2CCCC2)c(=O)[nH]1 (racemic) [Example 205, 1-cyclopentyl-6-[(3,4-trans)-1-(cyclopentylmethyl)-4-methylpyrrolidin-3-yl]-1,5-dihydro-4H-pyrazolo[3,4-d]pyrimidin-4-one] was tested, and the IC50 was 0.286 µM. Work on COc1ccc(CN2C[C@@H](C)[C@H](c3nc4c(cnn4C4CCCC4)c(=O)[nH]3)C2)c(OC)c1 (racemic) [Example 206, 1-cyclopentyl-6-[(3,4-trans)-1-(2,4-dimethoxybenzyl)-4-methylpyrrolidin-3-yl]-1,5-dihydro-4H-pyrazolo[3,4-d]pyrimidin-4-one] yielded an IC50 of 0.0684 µM. C[C@@H]1CN(Cc2ccc(CN3CCOCC3)cc2)C[C@H]1c1nc2c(cnn2C2CCCC2)c(=O)[nH]1 (racemic) [Example 207, 1-cyclopentyl-6-{(3,4-trans)-4-methyl-1-[4-(morpholin-4-ylmethyl)benzyl]pyrrolidin-3-yl}-1,5-dihydro-4H-pyrazolo[3,4-d]pyrimidin-4-one] showed an IC50 of 0.0462 µM. Compound C[C@@H]1CN(Cc2ccc3nsnc3c2)C[C@H]1c1nc2c(cnn2C2CCCC2)c(=O)[nH]1 (racemic) [Example 208, 6-[(3,4-trans)-1-(2,1,3-benzothiadiazol-5-ylmethyl)-4-methylpyrrolidin-3-yl]-1-cyclopentyl-1,5-dihydro-4H-pyrazolo[3,4-d]pyrimidin-4-one] has an IC50 of 0.00713 µM. In the case of C[C@@H]1CN(CCOCc2ccccc2)C[C@H]1c1nc2c(cnn2C2CCCC2)c(=O)[nH]1 (racemic) [Example 209, 6-{(3,4-trans)-1-[2-(benzyloxy)ethyl]-4-methylpyrrolidin-3-yl}-1-cyclopentyl-1,5-dihydro-4H-pyrazolo[3,4-d]pyrimidin-4-one], the IC50 is reported as 0.0529 µM. C[C@@H]1CN(Cc2c(F)cccc2F)C[C@H]1c1nc2c(cnn2C2CCCC2)c(=O)[nH]1 (racemic) [Example 210, 1-cyclopentyl-6-[(3,4-trans)-1-(2,6-diflurobenzyl)-4-methylpyrrolidin-3-yl]-1,5-dihydro-4H-pyrazolo[3,4-d]pyrimidin-4-one] was tested, and the IC50 was 0.0162 µM. COc1ccccc1CN1C[C@@H](C)[C@H](c2nc3c(cnn3C3CCCC3)c(=O)[nH]2)C1 (racemic) [Example 211, 1-cyclopentyl-6-[(3,4-trans)-1-(2-methoxybenzyl)-4-methylpyrrolidin-3-yl]-1,5-dihydro-4H-pyrazolo[3,4-d]pyrimidin-4-one] gave an IC50 of 0.0398 µM. Cc1nc(C)c(CN2C[C@@H](C)[C@H](c3nc4c(cnn4C4CCCC4)c(=O)[nH]3)C2)nc1C (racemic) [Example 212, 1-cyclopentyl-6-{(3,4-trans)-4-methyl-1-[(3,5,6-trimethylpyrazin-2-yl)methyl]pyrrolidin-3-yl}-1,5-dihydro-4H-pyrazolo[3,4-d]pyrimidin-4-one] showed an IC50 of 0.00998 µM. For C[C@@H]1CN(Cc2ccc(Cl)cc2Cl)C[C@H]1c1nc2c(cnn2C2CCCC2)c(=O)[nH]1 (racemic) [Example 213, 1-cyclopentyl-6-[(3,4-trans)-1-(2,4-dichlorobenzyl)-4-methylpyrrolidin-3-yl]-1,5-dihydro-4H-pyrazolo[3,4-d]pyrimidin-4-one], the IC50 was 0.124 µM. Compound C[C@@H]1CN(Cc2cnn3c2CCCCC3)C[C@H]1c1nc2c(cnn2C2CCCC2)c(=O)[nH]1 (racemic) [Example 214, 1-cyclopentyl-6-[(3,4-trans)-4-methyl-1-(5,6,7,8-tetrahydro-4H-pyrazolo[1,5-a]azepin-3-ylmethyl)pyrrolidin-3-yl]-1,5-dihydro-4H-pyrazolo[3,4-d]pyrimidin-4-one] has an IC50 of 0.0157 µM. C[C@@H]1CN(Cc2cccc(F)c2)C[C@H]1c1nc2c(cnn2C2CCCC2)c(=O)[nH]1 (racemic) [Example 215, 1-cyclopentyl-6-[(3,4-trans)-1-(3-fluorobenzyl)-4-methylpyrrolidin-3-yl]-1,5-dihydro-4H-pyrazolo[3,4-d]pyrimidin-4-one] showed an IC50 of 0.0115 µM. C[C@@H]1CN(Cc2ccc3c(c2)CCO3)C[C@H]1c1nc2c(cnn2C2CCCC2)c(=O)[nH]1 (racemic) [Example 216, 1-cyclopentyl-6-[(3,4-trans)-1-(2,3-dihydro-1-benzofuran-5-ylmethyl)-4-methylpyrrolidin-3-yl]-1,5-dihydro-4H-pyrazolo[3,4-d]pyrimidin-4-one] showed an IC50 of 0.0174 µM. COc1ccc(C)cc1CN1C[C@@H](C)[C@H](c2nc3c(cnn3C3CCCC3)c(=O)[nH]2)C1 (racemic) [Example 217, 1-cyclopentyl-6-[(3,4-trans)-1-(2-methoxy-5-methylbenzyl)-4-methylpyrrolidin-3-yl]-1,5-dihydro-4H-pyrazolo[3,4-d]pyrimidin-4-one] showed an IC50 of 0.025 µM. C[C@@H]1CN(Cc2ccccc2F)C[C@H]1c1nc2c(cnn2C2CCCC2)c(=O)[nH]1 (racemic) [Example 218, 1-cyclopentyl-6-[(3,4-trans)-1-(2-fluorobenzyl)-4-methylpyrrolidin-3-yl]-1,5-dihydro-4H-pyrazolo[3,4-d]pyrimidin-4-one] showed an IC50 of 0.0156 µM. With C[C@@H]1CN(Cc2ccccc2Cl)C[C@H]1c1nc2c(cnn2C2CCCC2)c(=O)[nH]1 (racemic) [Example 219, 6-[(3,4-trans)-1-(2-chlorobenzyl)-4-methylpyrrolidin-3-yl]-1-cyclopentyl-1,5-dihydro-4H-pyrazolo[3,4-d]pyrimidin-4-one] the IC50 was 0.0484 µM. C[C@@H]1CN(Cc2ccc(Cl)c(Cl)c2)C[C@H]1c1nc2c(cnn2C2CCCC2)c(=O)[nH]1 (racemic) [Example 220, 1-cyclopentyl-6-[(3,4-trans)-1-(3,4-dichlorobenzyl)-4-methylpyrrolidin-3-yl]-1,5-dihydro-4H-pyrazolo[3,4-d]pyrimidin-4-one] was tested, and the IC50 was 0.028 µM. C[C@@H]1CN(Cc2cccc3nsnc23)C[C@H]1c1nc2c(cnn2C2CCCC2)c(=O)[nH]1 (racemic) [Example 221, 6-[(3,4-trans)-1-(2,1,3-benzothiadiazol-4-ylmethyl)-4-methylpyrrolidin-3-yl]-1-cyclopentyl-1,5-dihydro-4H-pyrazolo[3,4-d]pyrimidin-4-one] gave an IC50 of 0.0127 µM. Work on CCCc1ncc(CN2C[C@@H](C)[C@H](c3nc4c(cnn4C4CCCC4)c(=O)[nH]3)C2)cn1 (racemic) [Example 222, 1-cyclopentyl-6-{(3,4-trans)-4-methyl-1-[(2-propylpyrimidin-5-yl)methyl]pyrrolidin-3-yl}-1,5-dihydro-4H-pyrazolo[3,4-d]pyrimidin-4-one] yielded an IC50 of 0.00603 µM. For CCn1nccc1CN1C[C@@H](C)[C@H](c2nc3c(cnn3C3CCCC3)c(=O)[nH]2)C1 (racemic) [Example 223, 1-cyclopentyl-6-{(3,4-trans)-1-[(1-ethyl-1H-pyrazol-5-yl)methyl]-4-methylpyrrolidin-3-yl}-1,5-dihydro-4H-pyrazolo[3,4-d]pyrimidin-4-one], the IC50 was 0.0144 µM. For C[C@@H]1CN(Cc2ccccc2OC(F)(F)F)C[C@H]1c1nc2c(cnn2C2CCCC2)c(=O)[nH]1 (racemic) [Example 224, 1-cyclopentyl-6-{(3,4-trans)-4-methyl-1-[2-(trifluoromethoxy)benzyl]pyrrolidin-3-yl}-1,5-dihydro-4H-pyrazolo[3,4-d]pyrimidin-4-one], the IC50 was 0.116 µM. Compound C[C@@H]1CN(Cc2ccc(C(F)(F)F)cc2)C[C@H]1c1nc2c(cnn2C2CCCC2)c(=O)[nH]1 (racemic) [Example 225] has an IC50 of 0.0349 µM. In the case of C[C@@H]1CN(Cc2nc3cnccc3n2C)C[C@H]1c1nc2c(cnn2C2CCCC2)c(=O)[nH]1 (racemic) [Example 226, 1-cyclopentyl-6-{(3,4-trans)-4-methyl-1-[(1-methyl-1H-imidazo[4,5-c]pyridin-2-yl)methyl]pyrrolidin-3-yl}-1,5-dihydro-4H-pyrazolo[3,4-d]pyrimidin-4-one], the IC50 is reported as 0.00378 µM. Work on C[C@@H]1CN(Cc2cc(F)cc(F)c2)C[C@H]1c1nc2c(cnn2C2CCCC2)c(=O)[nH]1 (racemic) [Example 227, 1-cyclopentyl-6-[(3,4-trans)-1-(3,5-difluorobenzyl)-4-methylpyrrolidin-3-yl]-1,5-dihydro-4H-pyrazolo[3,4-d]pyrimidin-4-one] yielded an IC50 of 0.00742 µM. Work on C[C@@H]1CN(Cc2cnn3c2CCC3)C[C@H]1c1nc2c(cnn2C2CCCC2)c(=O)[nH]1 (racemic) [Example 228, 1-cyclopentyl-6-[(3,4-trans)-1-(5,6-dihydro-4H-pyrrolo[1,2-b]pyrazol-3-ylmethyl)-4-methylpyrrolidin-3-yl]-1,5-dihydro-4H-pyrazolo[3,4-d]pyrimidin-4-one] yielded an IC50 of 0.0491 µM. Cc1ccc(CN2C[C@@H](C)[C@H](c3nc4c(cnn4C4CCCC4)c(=O)[nH]3)C2)cc1F (relative stereo) [Example 143, 1-cyclopentyl-6-[(3,4-trans)-1-(3-fluoro-4-methylbenzyl)-4-methylpyrrolidin-3-yl]-1,5-dihydro-4H-pyrazolo[3,4-d]pyrimidin-4-one] gave an IC50 of 0.0351 µM.
